US8685956B2, “Compositions and methods for reducing the risk of agent-induced liver toxicity” (The Board of Trustees of The University of Illinois, priority 2009, dated 2014)
Where two headings read alike, the source gives them in different places.

Columns and labels:
inbred mouse strains = assay: APAP-induced liver toxicity in a panel of inbred mouse strains (serum ALT activity); assay type: in vivo; conditions: single 300 mg/kg intraperitoneal injection, 6 hour
Method: A panel of inbred mouse strains was studied using an integrated genetic, transcriptional and metabolomic approach in order to better characterize genetic factors affecting susceptibility to APAP-induced liver toxicity.
The liver toxic effect of APAP was assessed by measuring the serum alanine aminotransferase (ALT) activity after a single administration of toxic level (300 mg/kg, intraperitoneal injection) APAP.

hepatic glutathione = conditions: after a toxic dose; James et al. 2003; cited from earlier work
APAP poisoning = conditions: cited from earlier work
Bhmt2 = target: T1, Bhmt2 (Homo sapiens, UniProt Q9H2M3); conditions: Szegedi et al. 2008; cited from earlier work
T1 sequence (Q9H2M3 1-363): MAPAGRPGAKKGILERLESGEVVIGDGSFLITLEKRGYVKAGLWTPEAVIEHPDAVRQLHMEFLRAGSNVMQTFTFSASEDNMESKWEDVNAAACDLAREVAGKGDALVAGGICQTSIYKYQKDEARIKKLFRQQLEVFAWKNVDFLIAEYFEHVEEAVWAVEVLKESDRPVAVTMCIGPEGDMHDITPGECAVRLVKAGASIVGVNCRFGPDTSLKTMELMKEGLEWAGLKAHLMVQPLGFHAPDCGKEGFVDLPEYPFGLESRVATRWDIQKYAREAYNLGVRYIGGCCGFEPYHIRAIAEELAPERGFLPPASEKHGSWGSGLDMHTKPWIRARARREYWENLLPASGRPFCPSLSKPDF

[1] = tested on: APAP-induced liver toxicity in inbred strains with intact or deficient Bhmt2 activity; assay: Strain-specific effect of SMM or SAM co-administration on APAP-induced liver toxicity; assay type: in vivo, mouse; conditions: 3 hour after APAP
Method: The availability of two inbred strains with allelic variants that eliminate Bhmt2 enzyme activity enabled the hypothesis that Bhmt2 is a susceptibility factor for APAP-induced liver toxicity to be tested in vivo. The effect that co-administration of SAM or SMM, which act on sequential steps in the methionine/GSH biosynthesis pathway, had on APAP-induced liver toxicity in strains with intact or deficient Bhmt2 activity was analyzed.
Hepatic glutathione (GSH) and methionine levels and the serum ALT were measured 3 hour after APAP administration to inbred strains. The R and S in the lower panel indicate whether SMM or SAM co-administration should have a protective (Rescue) effect, or not have a beneficial (Susceptible) effect on APAP-induced liver toxicity, respectively.

[2] = tested on: APAP-induced hepatotoxicity; conditions: cited from earlier work

## CC(=O)Nc1ccc(O)cc1 [APAP, Acetaminophen]
Inbred mouse strains; SJL/J mice
  liver injury (serum ALT activity): resistant phenotype
Inbred mouse strains; all strains other than SJL/J
  liver injury (serum alanine aminotransferase (ALT) activity): Significant liver injury
Hepatic glutathione
  depletion of hepatic glutathione: ≤ 90%

## CC(=O)N[C@@H](CS)C(=O)O [N-acetylcysteine]
APAP poisoning; oral administration
  tolerability: poorly tolerated
APAP poisoning; patients
  antidote effect in severe and ongoing APAP poisoning: effective antidote

## C[S+](CC[C@H](N)C(=O)O)C[C@H]1O[C@@H](n2cnc3c(N)ncnc32)[C@H](O)[C@@H]1O (stereo partly drawn) [SAM, S-adenosylmethionine]
Bhmt2
  Bhmt2 activity with the substance as methyl donor: very low activity
[1]; all strains
  effect of co-administration on APAP-induced liver toxicity (hepatic GSH, methionine, serum ALT): protective effect in all strains
[2]; C57BL/6J mice, APAP
  hepatic GSH levels: preserve hepatic GSH levels
[2]; C57BL/6J mice
  attenuation of APAP-induced hepatotoxicity: attenuate APAP-induced hepatotoxicity
[2]; previously shown
  attenuation of APAP-induced hepatotoxicity: attenuate APAP-induced hepatotoxicity

## C[S+](C)CC[C@H](N)C(=O)[O-] [SMM, S-methylmethionine]
Bhmt2
  Bhmt2 activity with the substance as methyl donor: specific methyltransferase
[1]; strains with active Bhmt2 enzyme (Gly27 allele)
  effect of co-administration on APAP-induced liver toxicity (hepatic GSH, methionine, serum ALT): protective effect
[1]; strains with inactive (Ser27 allele) Bhmt2 enzyme
  effect of co-administration on APAP-induced liver toxicity (hepatic GSH, methionine, serum ALT): not in strains with inactive (Ser27 allele) enzyme

## C[N+](C)(C)CC(=O)O [betaine]
Bhmt2
  Bhmt2 activity with the substance as methyl donor: cannot use betaine as the methyl donor

## CSCC[C@H](N)C(=O)O [methionine]
[2]; previously shown
  attenuation of APAP-induced hepatotoxicity: attenuate APAP-induced hepatotoxicity
